pIC50: −log10 of the molar value. ≈ marks a conversion by molar mass, not a printed value. Read-outs that look alike come from different tables or passages of the source.
Assays:
C. albicans = assay: Antifungal Activity Assay (broth microtiter MIC), C. albicans; assay type: cell-based, Candida albicans; conditions: Candida albicans, ATCC90028, 48 h
In short: (§1)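 Colonies from 24 h Sabouraud dextrose agar plates (35° C) are suspended in RPMI 1640+MOPS and diluted to give 2.5×10^3 CFU/mL in the wells. Plates are set up per CLSI M27-A3. Visual MIC is recorded at 48 h.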

C. parapsilosis = assay: Antifungal Activity Assay (broth microtiter MIC), C. parapsilosis; assay type: cell-based, Candida parapsilosis; conditions: Lodderomyces parapsilosis, ATCC22019, 48 h
In short: as §1

Rhizoctonia solani (Rs) = assay: Growth inhibition assay of fungal pathogens, Rs; assay type: cell-based; conditions: 48 h
Diplodia maydis (Dm) = assay: Growth inhibition assay of fungal pathogens, Dm; assay type: cell-based; conditions: Stenocarpella maydis, 48 h
In short: (§2)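 Spore suspension in 17% V8 liquid media; cpd final 50/10/2 or 2/0.4/0.08 ppm, 2% DMSO. OD600 + visual, 24 & 48 h; % inhibition at 48 h vs 2% DMSO ctrl.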

Botrtyis cinerea (Bc) = assay: Growth inhibition assay of fungal pathogens, Bc; assay type: cell-based; conditions: 48 h
In short: as §2

[1] = tested on: Phytophthora capsici (Pc); assay: Growth inhibition assay of fungal pathogens, Pc; assay type: cell-based; conditions: 48 h
In short: as §2

Septoria tritici (St) = assay: Growth inhibition assay of fungal pathogens, St; assay type: cell-based; conditions: Zymoseptoria tritici, 48 h
In short: as §2

[2] = tested on: Collectotrichum graminicola (Cg); assay: Growth inhibition assay of fungal pathogens, Cg; assay type: cell-based; conditions: 48 h
In short: as §2

human (hACC2) = human (hACC2) (Homo sapiens, UniProt O00763); assay: In vitro ACC inhibition assay (ADP-Glo), hACC2; assay type: biochemical; conditions: 5 nM ACC2, 20 μM ATP, 20 μM acetyl-CoA
Sequence of human (hACC2) (O00763 whole entry): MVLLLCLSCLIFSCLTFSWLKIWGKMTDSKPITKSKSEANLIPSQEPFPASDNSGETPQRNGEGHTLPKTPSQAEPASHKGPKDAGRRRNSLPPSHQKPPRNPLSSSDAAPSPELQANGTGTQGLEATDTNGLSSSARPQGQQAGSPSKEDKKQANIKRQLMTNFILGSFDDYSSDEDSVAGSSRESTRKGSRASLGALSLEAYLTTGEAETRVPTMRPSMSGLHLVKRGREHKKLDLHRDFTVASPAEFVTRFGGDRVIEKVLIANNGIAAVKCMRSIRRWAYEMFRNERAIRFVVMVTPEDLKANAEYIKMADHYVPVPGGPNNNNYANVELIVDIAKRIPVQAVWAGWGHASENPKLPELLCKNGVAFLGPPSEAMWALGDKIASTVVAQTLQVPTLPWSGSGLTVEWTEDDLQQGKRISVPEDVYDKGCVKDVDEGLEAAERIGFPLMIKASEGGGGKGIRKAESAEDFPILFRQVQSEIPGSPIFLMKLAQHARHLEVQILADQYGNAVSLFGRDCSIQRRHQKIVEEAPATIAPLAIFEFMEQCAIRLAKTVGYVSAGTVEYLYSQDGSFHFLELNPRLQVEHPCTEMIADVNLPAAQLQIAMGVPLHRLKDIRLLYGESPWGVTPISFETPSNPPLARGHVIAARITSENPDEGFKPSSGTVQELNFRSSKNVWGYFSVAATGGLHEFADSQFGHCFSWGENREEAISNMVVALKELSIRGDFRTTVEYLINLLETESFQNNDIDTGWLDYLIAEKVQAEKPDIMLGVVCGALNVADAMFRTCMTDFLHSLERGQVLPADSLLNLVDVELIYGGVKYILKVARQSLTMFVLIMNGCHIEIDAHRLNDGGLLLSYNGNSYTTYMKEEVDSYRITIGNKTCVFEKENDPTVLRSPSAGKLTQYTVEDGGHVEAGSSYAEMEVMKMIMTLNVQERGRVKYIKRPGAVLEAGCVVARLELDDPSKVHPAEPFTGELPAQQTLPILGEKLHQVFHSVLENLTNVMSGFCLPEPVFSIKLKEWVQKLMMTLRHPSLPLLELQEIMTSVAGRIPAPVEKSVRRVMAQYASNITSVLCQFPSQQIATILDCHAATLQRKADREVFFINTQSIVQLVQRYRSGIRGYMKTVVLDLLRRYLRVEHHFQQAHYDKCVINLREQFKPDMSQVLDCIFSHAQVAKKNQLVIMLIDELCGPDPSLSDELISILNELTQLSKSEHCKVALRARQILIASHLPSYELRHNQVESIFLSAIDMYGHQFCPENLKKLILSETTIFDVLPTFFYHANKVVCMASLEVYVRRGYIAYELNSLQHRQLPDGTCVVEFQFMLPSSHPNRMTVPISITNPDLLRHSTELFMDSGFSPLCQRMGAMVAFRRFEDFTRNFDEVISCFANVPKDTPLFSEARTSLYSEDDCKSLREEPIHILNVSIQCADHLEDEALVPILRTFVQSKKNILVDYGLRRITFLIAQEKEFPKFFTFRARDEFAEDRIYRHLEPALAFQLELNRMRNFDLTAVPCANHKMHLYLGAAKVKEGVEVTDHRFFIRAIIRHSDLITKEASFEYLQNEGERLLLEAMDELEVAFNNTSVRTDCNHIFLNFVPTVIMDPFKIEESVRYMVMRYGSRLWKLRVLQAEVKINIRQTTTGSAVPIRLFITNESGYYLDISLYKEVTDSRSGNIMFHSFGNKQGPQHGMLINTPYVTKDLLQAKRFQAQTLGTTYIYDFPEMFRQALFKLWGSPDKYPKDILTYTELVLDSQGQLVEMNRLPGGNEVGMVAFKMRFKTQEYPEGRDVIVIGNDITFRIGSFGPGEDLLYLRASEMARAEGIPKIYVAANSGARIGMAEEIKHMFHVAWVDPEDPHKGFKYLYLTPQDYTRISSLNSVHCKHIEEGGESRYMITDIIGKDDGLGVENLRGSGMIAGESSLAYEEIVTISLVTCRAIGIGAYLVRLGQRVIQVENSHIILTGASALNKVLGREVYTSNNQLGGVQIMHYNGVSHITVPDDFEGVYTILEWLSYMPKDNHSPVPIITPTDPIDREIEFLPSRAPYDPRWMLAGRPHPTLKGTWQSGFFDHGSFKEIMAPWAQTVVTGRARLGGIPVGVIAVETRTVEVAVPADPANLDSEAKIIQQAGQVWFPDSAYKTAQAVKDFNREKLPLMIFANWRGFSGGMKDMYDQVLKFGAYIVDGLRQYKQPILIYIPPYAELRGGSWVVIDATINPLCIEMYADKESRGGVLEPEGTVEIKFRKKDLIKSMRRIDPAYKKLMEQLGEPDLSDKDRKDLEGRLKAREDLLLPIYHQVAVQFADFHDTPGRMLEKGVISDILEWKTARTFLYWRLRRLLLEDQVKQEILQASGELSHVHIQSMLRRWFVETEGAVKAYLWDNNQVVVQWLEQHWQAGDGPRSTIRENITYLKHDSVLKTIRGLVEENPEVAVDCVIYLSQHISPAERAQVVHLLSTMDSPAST
Method: The detailed procedure is as follows. […] 10 μL ADP glo reagent was added. […] 20 μL kinase detection reagent was added.

fungal (fACC2) = fungal (fACC2) (UniProt Q00955); conditions: read-out: fACC2 (in vitro ACC2 Inhibition Assay, IC50), ADP-Glo, 5 nM ACC2, 20 μM ATP, 20 μM acetyl-CoA
Sequence of fungal (fACC2) (Q00955 whole entry): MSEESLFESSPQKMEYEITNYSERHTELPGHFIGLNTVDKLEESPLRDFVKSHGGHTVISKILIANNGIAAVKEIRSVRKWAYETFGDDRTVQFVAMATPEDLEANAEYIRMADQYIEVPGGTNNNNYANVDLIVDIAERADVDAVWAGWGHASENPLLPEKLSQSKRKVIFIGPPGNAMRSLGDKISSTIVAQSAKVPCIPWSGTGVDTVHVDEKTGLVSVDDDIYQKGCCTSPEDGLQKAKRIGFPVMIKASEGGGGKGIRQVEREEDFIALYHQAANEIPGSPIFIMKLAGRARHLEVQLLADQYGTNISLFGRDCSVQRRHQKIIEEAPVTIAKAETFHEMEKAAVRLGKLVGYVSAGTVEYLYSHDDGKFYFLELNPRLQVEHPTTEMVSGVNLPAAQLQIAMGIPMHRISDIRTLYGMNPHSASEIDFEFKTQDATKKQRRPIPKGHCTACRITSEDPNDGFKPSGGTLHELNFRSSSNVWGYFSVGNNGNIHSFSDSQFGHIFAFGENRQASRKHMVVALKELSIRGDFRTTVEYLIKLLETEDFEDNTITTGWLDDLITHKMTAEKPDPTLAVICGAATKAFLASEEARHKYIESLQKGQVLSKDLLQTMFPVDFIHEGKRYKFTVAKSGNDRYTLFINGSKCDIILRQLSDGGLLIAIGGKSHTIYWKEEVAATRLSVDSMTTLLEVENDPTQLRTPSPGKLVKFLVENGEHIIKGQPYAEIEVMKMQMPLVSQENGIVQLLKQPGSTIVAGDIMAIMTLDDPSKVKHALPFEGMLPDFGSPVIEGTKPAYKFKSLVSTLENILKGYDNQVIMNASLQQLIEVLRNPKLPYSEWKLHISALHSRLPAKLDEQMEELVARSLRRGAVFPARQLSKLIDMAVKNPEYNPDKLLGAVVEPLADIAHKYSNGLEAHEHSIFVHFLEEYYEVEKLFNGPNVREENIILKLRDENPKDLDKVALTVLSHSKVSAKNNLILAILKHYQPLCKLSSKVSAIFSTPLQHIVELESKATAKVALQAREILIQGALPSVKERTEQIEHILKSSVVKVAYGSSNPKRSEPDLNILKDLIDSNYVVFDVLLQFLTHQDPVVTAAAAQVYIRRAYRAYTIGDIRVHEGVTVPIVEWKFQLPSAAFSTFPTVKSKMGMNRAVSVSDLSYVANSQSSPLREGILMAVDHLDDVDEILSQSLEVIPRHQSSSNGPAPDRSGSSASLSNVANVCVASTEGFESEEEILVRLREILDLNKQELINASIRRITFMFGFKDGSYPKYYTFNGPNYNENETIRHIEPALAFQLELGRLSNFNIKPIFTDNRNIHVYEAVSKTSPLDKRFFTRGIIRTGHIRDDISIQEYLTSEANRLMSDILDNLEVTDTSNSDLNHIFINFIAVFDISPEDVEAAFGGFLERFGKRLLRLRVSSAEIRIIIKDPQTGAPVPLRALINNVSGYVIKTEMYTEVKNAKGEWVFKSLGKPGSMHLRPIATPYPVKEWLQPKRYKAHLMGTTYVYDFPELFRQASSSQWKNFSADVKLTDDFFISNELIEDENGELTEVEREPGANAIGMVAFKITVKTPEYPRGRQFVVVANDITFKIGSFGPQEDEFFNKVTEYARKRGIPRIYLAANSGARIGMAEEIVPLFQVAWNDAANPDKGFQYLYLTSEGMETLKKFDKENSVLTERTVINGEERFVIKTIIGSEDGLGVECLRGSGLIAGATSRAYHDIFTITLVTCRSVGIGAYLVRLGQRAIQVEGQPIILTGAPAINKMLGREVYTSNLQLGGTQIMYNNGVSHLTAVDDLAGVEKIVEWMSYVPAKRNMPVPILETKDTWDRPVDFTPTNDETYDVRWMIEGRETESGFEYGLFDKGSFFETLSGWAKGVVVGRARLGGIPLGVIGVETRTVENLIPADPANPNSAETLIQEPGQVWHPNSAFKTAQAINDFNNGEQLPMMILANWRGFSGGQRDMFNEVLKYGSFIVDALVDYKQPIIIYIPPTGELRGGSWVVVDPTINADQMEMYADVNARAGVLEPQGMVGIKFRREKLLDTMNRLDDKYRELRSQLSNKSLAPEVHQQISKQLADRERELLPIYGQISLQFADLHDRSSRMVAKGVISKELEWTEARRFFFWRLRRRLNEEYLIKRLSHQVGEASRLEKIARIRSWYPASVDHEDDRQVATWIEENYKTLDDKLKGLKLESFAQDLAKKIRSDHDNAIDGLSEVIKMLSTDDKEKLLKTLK

[3] = read-out: MIC, C. albicans ATCC 90028, Table 3a, 3 replicates, MIC recorded at 48 h
[4] = read-out: MIC, C. albicans ATCC 90028, Table 3b (additional results), 3 replicates, MIC recorded at 48 h
[5] = read-out: MIC, C. parapsilosis ATCC 22019, Table 3a, 3 replicates, MIC recorded at 48 h
[6] = read-out: MIC, C. parapsilosis ATCC 22019, Table 3b (additional results), 3 replicates, MIC recorded at 48 h
[7] = read-out: Concentration at 90% Inhibition Rs, Rhizoctonia solani, mycelial plugs, growth inhibition at 48 hours vs 2% DMSO control
[8] = read-out: Concentration at 90% Inhibition Rs, Rhizoctonia solani, mycelial plugs, growth inhibition vs 2% DMSO control at 48 hours
[9] = read-out: Concentration at 90% Inhibition Dm, Diplodia maydis, growth inhibition at 48 hours vs 2% DMSO control
[10] = read-out: Concentration at 90% Inhibition Dm, Diplodia maydis, growth inhibition vs 2% DMSO control at 48 hours
[11] = read-out: Concentration at 90% Inhibition Bc, Botrtyis cinerea, growth inhibition at 48 hours vs 2% DMSO control
[12] = read-out: Concentration at 90% Inhibition Bc, Botrtyis cinerea, growth inhibition vs 2% DMSO control at 48 hours
[13] = read-out: Concentration at 90% Inhibition Pc, Phytophthora capsici, growth inhibition at 48 hours vs 2% DMSO control
[14] = read-out: Concentration at 90% Inhibition Pc, Phytophthora capsici, growth inhibition vs 2% DMSO control at 48 hours
[15] = read-out: Concentration at 90% Inhibition St, Septoria tritici, growth inhibition at 48 hours vs 2% DMSO control
[16] = read-out: Concentration at 90% Inhibition St, Septoria tritici, growth inhibition vs 2% DMSO control at 48 hours
[17] = read-out: Concentration at 90% Inhibition Cg, Collectotrichum graminicola, growth inhibition at 48 hours vs 2% DMSO control
[18] = read-out: Concentration at 90% Inhibition Cg, Collectotrichum graminicola, growth inhibition vs 2% DMSO control at 48 hours

SMILES	MIC (C. albicans; [3])	MIC (C. albicans; [4])	MIC (C. parapsilosis; [5])	MIC (C. parapsilosis; [6])	IC90 (Rhizoctonia solani (Rs); [7])	IC90 (Rhizoctonia solani (Rs); [8])	IC90 (Diplodia maydis (Dm); [9])	IC90 (Diplodia maydis (Dm); [10])	IC90 (Botrtyis cinerea (Bc); [11])	IC90 (Botrtyis cinerea (Bc); [12])	IC90 [1, 13]	IC90 [1, 14]	IC90 (Septoria tritici (St); [15])	IC90 (Septoria tritici (St); [16])	IC90 [2, 17]	IC90 [2, 18]	pIC50 (human (hACC2); Table 2a)	pIC50 (human (hACC2); Table 2b, additional results)	pIC50 (fungal (fACC2); Table 2a)	pIC50 (fungal (fACC2); Table 2b, additional results)	other results
COc1ccc(F)cc1[C@H](Cn1c(=O)n(C(C)(C)C(=O)N2CCCCC2)c(=O)c2c(C)c(-n3nccn3)sc21)OC1CCC(=O)CC1 [Compound I-34, (R)-1-(2-(5-fluoro-2-methoxyphenyl)-2-((4-oxocyclohexyl)oxy)ethyl)-5-methyl-3-(2-methyl-1-oxo-1-(piperidin-1-yl)propan-2-yl)-6-(2H-1,2,3-triazol-2-yl)thieno[2,3-d]pyrimidine-2,4(1H,3H)-dione]	0.25 to 1 µg/mL (≈ 0.375 to 1.5 µM)	0.25 to 1 µg/mL (≈ 0.375 to 1.5 µM)	0.25 to 1 µg/mL (≈ 0.375 to 1.5 µM)	0.25 to 1 µg/mL (≈ 0.375 to 1.5 µM)	2 µg/mL (≈ 3 µM)	2 µg/mL (≈ 3 µM)	2 µg/mL (≈ 3 µM)	2 µg/mL (≈ 3 µM)	0.4 µg/mL (≈ 0.6 µM)	0.4 µg/mL (≈ 0.6 µM)	> 50 µg/mL	> 50 µg/mL	> 50 µg/mL	> 50 µg/mL	0.4 µg/mL (≈ 0.6 µM)	0.4 µg/mL (≈ 0.6 µM)	8.00 to 8.30	8.00 to 8.30	8.30 to 9.00	8.30 to 9.00	
COc1ccc(F)cc1[C@H](Cn1c(=O)n(CC(=O)NC(C)C)c(=O)c2c(C)c(-n3nccn3)sc21)OC(C)C [Compound I-35, (R)-2-(1-(2-(5-fluoro-2-methoxyphenyl)-2-isopropoxy-ethyl)-5-methyl-2,4-dioxo-6-(2H-1,2,3-triazol-2-yl)-1,4-dihydrothieno[2,3-d]pyrimidin-3(2H)-yl)-N-isopropylacetamide]	2.1 to 4 µg/mL (≈ 3.76 to 7.16 µM)	2.01 to 4 µg/mL (≈ 3.6 to 7.16 µM)	2.1 to 4 µg/mL (≈ 3.76 to 7.16 µM)	2.01 to 4 µg/mL (≈ 3.6 to 7.16 µM)	2 µg/mL (≈ 3.58 µM)	10 µg/mL (≈ 17.9 µM)	0.4 µg/mL (≈ 0.716 µM)	0.4 µg/mL (≈ 0.716 µM)	0.4 µg/mL (≈ 0.716 µM)	0.4 µg/mL (≈ 0.716 µM)	> 50 µg/mL	> 50 µg/mL	> 50 µg/mL	> 50 µg/mL	> 50 µg/mL	> 50 µg/mL	8.30 to 9.00	8.30 to 9.00	8.30 to 9.00	8.30 to 9.00	
CCO[C@@H](Cn1c(=O)n(C(C)(C)C(=O)N2CCCC2)c(=O)c2c(C)c(-n3nccn3)sc21)c1cc(F)ccc1OC [Compound I-42, (R)-1-(2-ethoxy-2-(5-fluoro-2-methoxyphenyl)ethyl)-5-methyl-3-(2-methyl-1-oxo-1-(pyrrolidin-1-yl)propan-2-yl)-6-(2H-1,2,3-triazol-2-yl)thieno[2,3-d]pyrimidine-2,4(1H,3H)-dione]																	8.00 to 8.30	8.00 to 8.30	8.30 to 9.00	8.30 to 9.00	MIC (C. albicans; Table 3a, ATCC 90028, 3 replicates, MIC recorded at 48 h, read-out: MIC, C. albicans ATCC 90028): 1.1 to 2 µg/mL (≈ 1.88 to 3.42 µM); MIC (C. albicans; Table 3b (additional results), ATCC 90028, 3 replicates, MIC recorded at 48 h, read-out: MIC, C. albicans ATCC 90028): 2.01 to 4 µg/mL (≈ 3.44 to 6.84 µM); MIC (C. parapsilosis; Table 3a, ATCC 22019, 3 replicates, MIC recorded at 48 h, read-out: MIC, C. parapsilosis ATCC 22019): 1.1 to 2 µg/mL (≈ 1.88 to 3.42 µM); MIC (C. parapsilosis; Table 3b (additional results), ATCC 22019, 3 replicates, MIC recorded at 48 h, read-out: MIC, C. parapsilosis ATCC 22019): 1.01 to 2 µg/mL (≈ 1.73 to 3.42 µM); IC90 (Rhizoctonia solani (Rs); mycelial plugs, growth inhibition at 48 hours vs 2% DMSO control, read-out: Concentration at 90% Inhibition Rs): 0.4 µg/mL (≈ 0.684 µM); IC90 (Rhizoctonia solani (Rs); mycelial plugs, growth inhibition vs 2% DMSO control at 48 hours, read-out: Concentration at 90% Inhibition Rs): 0.4 µg/mL (≈ 0.684 µM); IC90 (Diplodia maydis (Dm); Diplodia maydis, growth inhibition at 48 hours vs 2% DMSO control, read-out: Concentration at 90% Inhibition Dm): 0.4 µg/mL (≈ 0.684 µM); IC90 (Diplodia maydis (Dm); Diplodia maydis, growth inhibition vs 2% DMSO control at 48 hours, read-out: Concentration at 90% Inhibition Dm): 0.4 µg/mL (≈ 0.684 µM); IC90 (Botrtyis cinerea (Bc); Botrtyis cinerea, growth inhibition at 48 hours vs 2% DMSO control, read-out: Concentration at 90% Inhibition Bc): 0.4 µg/mL (≈ 0.684 µM); IC90 (Botrtyis cinerea (Bc); Botrtyis cinerea, growth inhibition vs 2% DMSO control at 48 hours, read-out: Concentration at 90% Inhibition Bc): 0.4 µg/mL (≈ 0.684 µM); IC90 ([1]; growth inhibition at 48 hours vs 2% DMSO control, read-out: Concentration at 90% Inhibition Pc): > 50 µg/mL; IC90 ([1]; growth inhibition vs 2% DMSO control at 48 hours, read-out: Concentration at 90% Inhibition Pc): > 50 µg/mL; IC90 (Septoria tritici (St); Septoria tritici, growth inhibition at 48 hours vs 2% DMSO control, read-out: Concentration at 90% Inhibition St): 2 µg/mL (≈ 3.42 µM); IC90 (Septoria tritici (St); Septoria tritici, growth inhibition vs 2% DMSO control at 48 hours, read-out: Concentration at 90% Inhibition St): 10 µg/mL (≈ 17.1 µM); IC90 ([2]; Collectotrichum graminicola, growth inhibition at 48 hours vs 2% DMSO control, read-out: Concentration at 90% Inhibition Cg): 0.08 µg/mL (≈ 0.137 µM); IC90 ([2]; Collectotrichum graminicola, growth inhibition vs 2% DMSO control at 48 hours, read-out: Concentration at 90% Inhibition Cg): 0.08 µg/mL (≈ 0.137 µM)
COc1ccc(F)cc1[C@H](Cn1c(=O)n(C(C)(C)C(=O)NC(C)C)c(=O)c2c(C)c(-n3nccn3)sc21)OCCO [Compound I-43, (R)-2-(1-(2-(5-fluoro-2-methoxyphenyl)-2-(2-hydroxyethoxy)ethyl)-5-methyl-2,4-dioxo-6-(2H-1,2,3-triazol-2-yl)-1,4-dihydrothieno[2,3-d]pyrimidin-3(2H)-yl)-N-isopropyl-2-methylpropanamide]	0.25 to 1 µg/mL (≈ 0.425 to 1.7 µM)	0.25 to 1 µg/mL (≈ 0.425 to 1.7 µM)	0.25 to 1 µg/mL (≈ 0.425 to 1.7 µM)	0.25 to 1 µg/mL (≈ 0.425 to 1.7 µM)	0.08 µg/mL (≈ 0.136 µM)	0.08 µg/mL (≈ 0.136 µM)	0.4 µg/mL (≈ 0.68 µM)	0.4 µg/mL (≈ 0.68 µM)	2 µg/mL (≈ 3.4 µM)	2 µg/mL (≈ 3.4 µM)	2 µg/mL (≈ 3.4 µM)	10 µg/mL (≈ 17 µM)	2 µg/mL (≈ 3.4 µM)	10 µg/mL (≈ 17 µM)	0.4 µg/mL (≈ 0.68 µM)	0.4 µg/mL (≈ 0.68 µM)	8.00 to 8.30	8.00 to 8.30	9.00 to 9.40	9.00 to 9.52	

— US10800791B2, “Triazole ACC inhibitors and uses thereof” (Gilead Apollo, LLC, priority 2015, dated 2020)
